We go through one substance from patent US7348305B2, “Inhibitor of cardiac tachyarrhythmias” (Department of Veterans Affairs, Rehabilitation, priority 2003, dated 2008).

The test system of one series is myocardial infarct. The experiment in a line: Model 2: 2-hr LAD occlusion/4-hr reperfusion, infarct size. Type of series: in vivo, dog. How it is done: Model 2: Acute changes in infarct size. Seventeen 15-22 kg male mongrel dogs were anesthetized and respired as described above. Body temperature was maintained using a temperature-controlled operative table bed and fluid replacement. Two EKG leads (L-II and V-3) and arterial pressure (left femoral) were continuously monitored during the experiment. […] After 4 hours of reperfusion, the heart was removed and rinsed with room-temperature Tyrode's solution. Cannulae were placed into the proximal aorta and into the LAD artery at the site of occlusion for perfusion with Evans blue (0.1%) and TTZ (0.1%), respectively, at equal pressure (80 mmHg). The area at risk of infarction was delineated by its red color (surviving myocardium) or a pale color (infarct) with the remaining heart stained by Evan's blue. The heart was then sliced to provide a 5 mm thick section parallel to the AV groove. After storage overnight in buffered formalin, infarcted tissue, surviving myocardium within the anatomic area at risk of infarction, and left ventricle outside the area at risk of infarction were separated using a scalpel blade. Infarct mass, area at risk of infarction, left ventricular mass, and total heart mass were determined gravimetrically. Anti-TNFα Treatment: A dosage of 2 mg/kg hTNFR:Fc (supplied as etanercept, Amgen, Inc, Thousand Oaks, Calif.) or saline were injected IV into a forepaw vein at 24-hr and again 1-hr prior to LAD ligation. […] This dosage was used after consultation with the pharmaceutical corporate pharmacology section and based on unpublished internal data that this dosage would provide maximal sequestration of tissue and circulating TNFα.

The nature of series [1]: Side effects of IV injection in dogs. Format: in vivo, dog. The settings on record: 2 mg/kg IV into a forepaw vein at 24-hr and 1-hr prior to LAD ligation. As to the method:
Anti-TNFα Treatment: A dosage of 2 mg/kg hTNFR:Fc (supplied as etanercept, Amgen, Inc, Thousand Oaks, Calif.) or saline were injected IV into a forepaw vein at 24-hr and again 1-hr prior to LAD ligation. […] This dosage was used after consultation with the pharmaceutical corporate pharmacology section and based on unpublished internal data that this dosage would provide maximal sequestration of tissue and circulating TNFα.

[2] abbreviates: etanercept pretreated, 2-hr occlusion/4-hr reperfusion.

Turning to etanercept, in the series with myocardial infarct (setting [2]), the “decrease in infarct size (% area at risk) compared to saline” value worked out at 61% and the “decrease in infarct size (% left ventricular mass) compared to saline” value turned out to be 54%. In the series on myocardial infarct (etanercept pretreated, 2-hr occlusion/4-hr reperfusion, n=8, saline 13±1), the “infarct size, % left ventricular mass (LV)” value is given as 6±1 % LV. Further, the “infarct size, % area at risk (AR)” value in the series with myocardial infarct (etanercept pretreated, 2-hr occlusion/4-hr reperfusion, n=8, saline 38±6) is 15±2 % AR. In the series on myocardial infarct (etanercept pretreatment, Model 2, approximate summary), the “reduction of infarct size expressed as % left ventricular mass or % area at risk” value is “approximately 50%”. Moreover, the “side effects of the injection” value in series [1] is “No side effects”.
